Columns and labels:
Caco-2 cells = test: Northern blot analysis of BAR/FXR target genes in differentiated Caco-2 cells; type: cell-based, human; conditions: for IBABP expression / SHP expression: 10 μM, 24 hours
Method: Caco-2 cells were maintained for 20 days post-confluence to allow differentiation. They were fed twice a week with their regular media during this period.
(§1) One day prior to treatment, confluent HepG2 and differentiated Caco-2 cells were switched to phenol red-free media containing resin-charcoal stripped FBS and then treated for and additional 24 hours with the indicated compounds. Total RNA was isolated using the Trizol reagent. Northern blots were prepared from polyA^+ RNA using the Oligotex method (Qiagen) and analyzed with the following probes: human CYP7A (accession #M93133) nucleotides 1617-2576 (Karam and Chiang, 185 Biochem. Biophys. Res. Commun. 588 (1992)), human SHP (accession #L76571) nucleotides 888-1355, human IBABP (accession # A1311734), an EST containing the entire coding sequence of IBABP.
(§2) We next tested the ability of AGN 29 and AGN 31 to regulate BAR/FXR target genes. We used the hepatoma cell line HepG2 as a hepatocyte model as this cell line has been used extensively to study cholesterol metabolism and bile acid-mediated gene regulation. We monitored the expression of two well known BAR/FXR target genes: CYP7A, the rate-limiting enzyme for bile acid synthesis, is down regulated by bile acids in HepG2 cells.

HepG2 cells = test: Northern blot analysis of BAR/FXR target genes in HepG2 cells; type: cell-based, human; conditions: for BAR/FXR expression / CYP7A expression / GAPDH expression / transcription of SHP: 24 hours
Method: as §1, §2
To verify that AGN34 represses BAR/FXR […], we looked at its effect on BAR/FXR target genes in cultured cells by Northern blot analysis.

[1] = target: T1, BAR/FXR (BAR-RXR heterodimer) (UniProt P19793+Q62735); test: Transient cotransfection luciferase reporter assay, full-length BAR/FXR and RXR in CV-1 cells; design: repression of the BAR/RXR heterodimer: dose or concentration left out as unconfirmed; conditions: for activation of BAR/FXR (luciferase expression): 5 μM, 40 hours
T1 sequence (Q62735 1-469): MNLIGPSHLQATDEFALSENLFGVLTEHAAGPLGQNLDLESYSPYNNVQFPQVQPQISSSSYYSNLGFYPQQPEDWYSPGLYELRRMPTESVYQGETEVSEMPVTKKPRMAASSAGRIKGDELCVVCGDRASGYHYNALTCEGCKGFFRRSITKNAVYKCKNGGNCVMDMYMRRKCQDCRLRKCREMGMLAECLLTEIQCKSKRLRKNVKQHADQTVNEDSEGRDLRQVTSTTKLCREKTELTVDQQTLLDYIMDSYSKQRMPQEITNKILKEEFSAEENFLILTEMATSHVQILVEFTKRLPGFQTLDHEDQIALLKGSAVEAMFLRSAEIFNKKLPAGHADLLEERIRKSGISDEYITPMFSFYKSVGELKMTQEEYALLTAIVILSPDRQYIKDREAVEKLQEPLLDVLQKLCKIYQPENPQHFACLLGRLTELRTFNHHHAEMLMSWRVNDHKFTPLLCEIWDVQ
T1 sequence (P19793 1-462): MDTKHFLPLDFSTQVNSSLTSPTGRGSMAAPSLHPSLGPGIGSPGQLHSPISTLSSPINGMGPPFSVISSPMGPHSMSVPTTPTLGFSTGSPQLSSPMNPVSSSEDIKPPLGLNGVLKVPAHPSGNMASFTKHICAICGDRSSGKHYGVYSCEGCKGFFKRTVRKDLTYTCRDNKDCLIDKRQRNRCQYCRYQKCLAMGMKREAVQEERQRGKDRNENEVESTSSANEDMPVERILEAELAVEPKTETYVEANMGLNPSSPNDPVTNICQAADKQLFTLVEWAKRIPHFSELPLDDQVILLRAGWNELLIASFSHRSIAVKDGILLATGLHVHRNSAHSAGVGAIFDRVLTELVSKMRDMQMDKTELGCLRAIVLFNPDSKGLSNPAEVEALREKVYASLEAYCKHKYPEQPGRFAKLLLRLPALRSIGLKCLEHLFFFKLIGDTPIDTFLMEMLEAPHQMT

CYP7A expression (HepG2 cells; AGN 34 alone)	CYP7A expression (HepG2 cells; combination of AGN 34 and CDCA)	repression of the BAR/RXR heterodimer [1]	repression of CDCA-activated transcription ([1]; 0.03 μM AGN 34, constant concentration of CDCA)	repression of CDCA-activated BAR-mediated transcription ([1]; 50 μM CDCA + 1 μM AGN 34)	basal activity of luciferase gene expression ([1]; AGN 34 (1 μM) without CDCA)	concentration showing maximal activity (repression) ([1]; constant concentration of CDCA)	Structure (SMILES)	IBABP expression (Caco-2 cells)	SHP expression (Caco-2 cells)	BAR/FXR expression (HepG2 cells; 10 μM)	CYP7A expression (HepG2 cells; 10 μM)	GAPDH expression (HepG2 cells; 10 μM)	transcription of SHP (HepG2 cells; 10 μM)	EC50 [1]	activation of BAR/FXR (luciferase expression) [1]	basal SHP levels (Caco-2 cells; 1 μM AGN 34, 24 hours)	CDCA-induced IBABP levels (Caco-2 cells; 100 μM CDCA + 1 μM AGN34, 24 hours)	basal SHP levels (HepG2 cells; 1 μM AGN 34, 24 hours)
–	–	–	–	–	–	–	Cc1cc2c(cc1/C(=C/c1ccc(C(=O)O)cc1)[Si](C)(C)C)C(C)(C)CCC2(C)C [AGN 29, (Z)-4-[2-(3,5,5,8,8-Pentamethy1-5,6,7,8-tetrahydronaphthalen-2-yl)-2-(trimethylsilyl)vinyl]benzoic Acid]	strongly induced	strongly induced	no effect	repress	no effect	induce	~2 µM	91 fold	–	–	–
–	–	–	–	–	–	–	CCCC/C(=C\c1ccc(C(=O)O)cc1)c1ccc2c(c1)C(C)(C)CCC2(C)C [AGN 31, 4-[2-(5,5,8,8-Tetramethyl-5,6,7,8-tetrahydronaphthalen-2-yl)hex-1-enyl]benzoic Acid]	strongly induced	strongly induced	no effect	repress	no effect	induce	~2 µM	85 fold	–	–	–
repressed	repressed even further	~10 fold	approximately 85%	~10 fold	did not affect	1 µM	CCCCCCOc1c(\C(C)=C/C=C/C(C)=C/C(=O)O)cc(C(C)C)cc1C(C)C [AGN 34, (2E, 4E, 6Z)-7-(2-Hexyloxy-3,5-diisopropylphenyl)-3-methylocta-2,4,6-trienoic Acid]	–	–	–	–	–	–	–	–	did not affect	reduced the induced IBABP levels close to basal levels	did not affect

Reference: patent US20030144360A1, “Composition and method for modulating BAR/FXR receptor activity” (Allergan Sales, Inc., priority 2001, published 2003)
